Values quoted from earlier work as cited in patent US10517911B2, “Manufacturing methods, compositions, and medical applications of orally administered cannabis pharmaceuticals using representative/total/complete cannabis extractions (cannabis infused pills)” (priority 2016, dated 2019).

Legend:
COX-2 = molecular target: T1, COX-2 (Homo sapiens, UniProt P35354)
T1 sequence (P35354 18-604): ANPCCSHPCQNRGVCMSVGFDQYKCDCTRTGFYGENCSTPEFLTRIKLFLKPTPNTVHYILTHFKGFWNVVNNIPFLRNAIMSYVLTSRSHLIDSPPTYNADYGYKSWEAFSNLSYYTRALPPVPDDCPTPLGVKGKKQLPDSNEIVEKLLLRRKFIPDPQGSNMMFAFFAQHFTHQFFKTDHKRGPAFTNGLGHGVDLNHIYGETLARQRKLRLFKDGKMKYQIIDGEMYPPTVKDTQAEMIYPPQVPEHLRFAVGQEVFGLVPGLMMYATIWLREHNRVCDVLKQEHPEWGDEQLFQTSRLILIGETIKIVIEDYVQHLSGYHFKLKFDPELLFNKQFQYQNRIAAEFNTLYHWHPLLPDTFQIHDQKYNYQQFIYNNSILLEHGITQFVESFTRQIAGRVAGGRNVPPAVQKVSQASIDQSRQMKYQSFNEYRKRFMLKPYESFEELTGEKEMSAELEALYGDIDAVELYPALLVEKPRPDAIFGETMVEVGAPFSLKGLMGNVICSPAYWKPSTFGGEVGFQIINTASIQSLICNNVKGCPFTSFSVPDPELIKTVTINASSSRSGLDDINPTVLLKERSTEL

COX-1 = COX-1 (Homo sapiens, UniProt P23219)
[1] = system: methicillin-resistant Staphylococcus aureus (MRSA)

Sequence of COX-1 (P23219 24-599): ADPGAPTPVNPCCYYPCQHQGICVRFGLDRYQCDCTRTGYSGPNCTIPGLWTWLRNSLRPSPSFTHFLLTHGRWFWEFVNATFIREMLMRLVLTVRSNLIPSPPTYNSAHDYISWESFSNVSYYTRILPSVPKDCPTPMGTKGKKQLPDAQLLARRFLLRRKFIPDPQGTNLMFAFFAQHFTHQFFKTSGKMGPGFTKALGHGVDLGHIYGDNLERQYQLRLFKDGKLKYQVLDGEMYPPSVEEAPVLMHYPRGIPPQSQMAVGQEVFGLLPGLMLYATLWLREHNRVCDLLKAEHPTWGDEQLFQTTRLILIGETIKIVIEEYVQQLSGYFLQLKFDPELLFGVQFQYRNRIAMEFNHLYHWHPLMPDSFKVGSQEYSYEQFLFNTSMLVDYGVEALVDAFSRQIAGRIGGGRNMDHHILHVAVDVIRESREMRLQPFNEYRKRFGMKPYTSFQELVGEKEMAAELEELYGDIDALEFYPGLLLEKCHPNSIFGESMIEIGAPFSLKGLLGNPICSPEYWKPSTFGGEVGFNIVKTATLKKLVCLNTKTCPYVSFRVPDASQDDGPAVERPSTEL

SMILES	anti-inflammatory effectiveness relative to aspirin (times as effective as aspirin) [times]	anti-inflammatory effectiveness relative to hydrocortisone (times as effective as hydrocortisone) [times]	COX-2 inhibition (COX-2)	COX-1 inhibition (COX-1)	activity against methicillin-resistant Staphylococcus aureus (MRSA) [1]
CCCCCc1cc(O)c2c(c1)OC(C)(C)[C@@H]1CCC(C)=C[C@@H]21 [Tetrahydrocannabinol I, Tetrahydrocannabinol]	20	2	no COX-1 or COX-2 inhibition	no COX-1 or COX-2 inhibition	
C=C(C)[C@@H]1CCC(C)=C[C@H]1c1c(O)cc(CCCCC)cc1O [Cannabidiol]					powerful activity
CCCCCc1cc(O)c2c(c1)OC(C)(C)c1ccc(C)cc1-2 [Cannabinol]					powerful activity
